We go through one compound from article PMC3793977, “High-Throughput Screening (HTS) and Hit Validation to Identify Small Molecule Inhibitors with Activity against NS3/4A proteases from Multiple Hepatitis C Virus Genotypes” (PLoS ONE, 2013).

Values joined by “and” are separate entries in the source; they are usually repeats but may differ in a detail not shown here. Equal values may be shown once. A value given as a limit tells only on which side of the number the result lay.

For data set [1], the target named is T1, HCV replicon cell lysate sg 1b (NS3) (Hepatitis C virus genotype 1b, UniProt Q9WMX2).
T1 construct: host or cells: Huh7 Clone B cells stably replicating an HCV 1b subgenomic replicon; whole cell lysate
Briefly: Whole cell lysate inhibition assay, HCV subgenomic replicon 1b. Type of data set: biochemical. How it is done:
(§1) Huh7-1 cells (also known as Huh7/scr cells) were obtained from F.V. Chisari (The Scripps Research Institute, La Jolla, CA). Clone B HCV sub-genotype 1b Huh7 cells were obtained from the NIH AIDS Research and Reference Reagent Program and have been previously described. Huh7 cells stably replicating the sub-genotype 2a HCV JFH-1 replicon were generated as previously described. All cells were cultured in complete Dulbecco’s modified Eagle’s medium (DMEM) supplemented with 10% fetal bovine serum, 100 units/mL penicillin, […] streptomycin, and 2 mM L-glutamine. HCV replicon cells were maintained in 500 µg/mL Geneticin (Invitrogen). For NS3 inhibition analysis, lysates from parental Huh7 cells and HCV replicon cells were harvested on ice in pre-chilled FRET cell lysis buffer (50 mM Tris-HCl, pH 7.5; 150 mM NaCl, 2 mM EDTA, 1.25% Triton X-100). Lysates were brought to room temperature and mixed 1∶1 with 2× FRET assay buffer (100 mM Tris-HCl, pH 7.5, 300 mM NaCl, 4 mM EDTA, 2.5% Triton X-100, 10 mM GSH, and 4 µM substrate). Fluorescence intensity was continuously monitored for 1 hour, and IC50 values were determined in the same way as biochemical assays.

In the next data set the target is T2, Trypsin (Homo sapiens, UniProt P07477).
T2 construct: purchased Sigma
Briefly: Inhibitor selectivity assay, trypsin (fluorometric). The class given is biochemical. How it is done: (§2) To test for selectivity, two human serine proteases, Trypsin and Chymotrypsin (Sigma), were tested with the top two hit compounds from HTS using a fluorometric assay. The fluorogenic substrates used in this study were N-benzoyl-L-Arg-7-amido-4-methylcoumarin (Sigma) and N-succinyl-Ala-Ala-Phe-7-amido-4- methylcoumarin (Sigma) for trypsin and chymotrypsin, respectively. All assays were performed in 384-well black plates (Corning) in a total volume of 24 µL of PBS (pH 7.4) buffer containing 0.01% Triton, 0.1 mg/mL BSA, and 2 mM GSH in triplicate. A series of compound concentrations (0 to 200 µM final concentration at 2-fold serial dilution) in 100% DMSO was prepared in a 384-well plate. 20 µL of trypsin (0.01 mg/mL) and chymotrypsin (0.0001 mg/mL) solutions were distributed into wells, and 0.5 µL of varying concentration of compounds were added and incubated for 10 minutes. The enzyme reaction was initiated by adding 5 µL of the substrate (50 µM final concentration), and fluorescence intensity was continuously monitored at excitation/emission wavelengths of 350 nm/460 nm for 10 minutes.

A short description of data set [2]: Microsomal stability assay. Type of data set: in vitro ADME, mouse. How it is done: A typical incubation mixture (100 µL total volume) for the metabolic stability studies contained 1 µM (final concentration) test compounds, 0.5 mg/mL microsomal protein (pooled Balb/c mouse liver microsomes prepared as described previously), 100 mM Tris-HCl buffer (pH7.4), and NADPH-generating system (5 mM isocitric acid, 0.2 unit/mL isocitric acid dehydrogenase, 5 mM magnesium chloride, 1 mM NADP^+). After pre-incubation at 37°C for 5 minutes, the reactions were started by addition of NADP^+ and further incubated for another 0, 5, 10, and 20 minutes. For control experiments, NADPH and/or liver microsomes were omitted from these incubations. The reactions were terminated by adding 100 µL ice-cold acetonitrile containing phenytoin (1 µM) as an internal standard and kept on ice for 30 minutes, followed by centrifugation at 16,100 g for 15 minutes to obtain the supernatant. Aliquots (5 µL) were then analyzed for substrate disappearance using liquid chromatography-tandem mass spectrometry (Agilent 1200 HPLC interfaced with Applied Biosystems Qtrap 3200) equipped with an electrospray ion source. Chromatographic separation was carried out with a Waters XTerra MS C18 column (2.1×50 mm, 3.5 µm; Agilent Technologies, Santa Clara, CA). The mobile phases consisted of solvent A (0.1% (v/v) aqueous formic acid) and solvent B (acetonitrile). A 250 µL/min flow rate gradient was developed for each test compound over 10 minutes (Table S2 in File S1). Mass detection of test substrates and internal standard were followed in a positive ion mode by examining multiple reaction monitoring (MRM) pairs. The spraying needle voltage was set at 5000 V. Curtain gas was set at 20; gas 1 and gas 2 were set at 45 and 50, respectively; collision assisted dissociation gas was at medium; and the source heater probe temperature was at 500°C. The test compounds were quantified by comparing the ratio of ion currents obtained for the substrates and an internal standards calibration curve. Data acquisition and processing were accomplished using Analyst software (version 1.4.1; Applied Biosystems). Apparent half-lives (t1/2) for the disappearance of parent drugs were calculated from the pseudo-first-order rate constants (ke) obtained by linear regression of plots of log [drug remaining] versus time (GraphPad Prism 5 software, La Jolla, CA) using the equation: t1/2 = 0.693/ke.

For another data set, the target named is T3, Chymotrypsin (Homo sapiens, UniProt P17538).
T3 construct: purchased Sigma
Briefly: Inhibitor selectivity assay, chymotrypsin (fluorometric). The class given is biochemical. Here is the method: as §2

Data set [3] addresses T4, NS3/4A protease genotype 1a (Hepatitis C virus genotype 1a, UniProt P27958).
T4 construct: against the NS3/4A protease domains from three additional HCV genotypes (1a, 2a, and 4d); purchased Anaspec
Briefly: Inhibition assay with NS3/4A from genotype 1a. The class given is biochemical. The following applies: IC50 NS3/4A genotype 1a. Here is the method:
The inhibitory activity of the final hit compounds from HTS were tested against three other HCV genotypes (1a, 2a, and 4d), along with a control (genotype 1b) and five NS3 drug-resistant mutants. Eight full-length NS3 mutants (V36M, R155K, A156T, A156S, 156V, V36A, T54A, and R155T) were generated by mutagenesis and purified, and the three HCV NS3/4A protease genotypes were purchased from Anaspec. Unfortunately the enzyme activities of the three mutants V36A, T54A, and R155T were much less than that of the rest of the mutants and were insufficient for testing, therefore mutant studies were done with the five active mutants. Continuous kinetic assays were performed against all hit compounds in the same way as the wild-type NS3/4A. As a control, full-length NS3/4A (genotype 1b) was tested under the same conditions for direct comparison for each plate.

Data set [4] addresses T5, HCV replicon cell lysate sg 2a (NS3) (Hepatitis C virus genotype 2a, UniProt Q99IB8).
T5 construct: expressed in transfected cells; host or cells: Huh7 cells stably replicating the JFH-1 subgenomic replicon; whole cell lysate
Briefly: Whole cell lysate inhibition assay, HCV subgenomic replicon 2a. The class given is biochemical. Here is the method: as §1

On to `Cc1cc(NC(=O)Cc2csc(NS(=O)(=O)c3ccccc3)n2)ccc1Br` [Compound 12], for which, in data set [1] (sg1b lysate compared to purified enzyme), the “fold increase of IC50, whole cell lysate 1b vs biochemical assay” value was 10–20 fold. In addition, the IC50 in data set [1] (whole cell lysate, subgenomic replicon 1b) was < 120 µM and 29.3 µM; against Trypsin (human trypsin), > 100 µM; against Chymotrypsin (human chymotrypsin) it was > 100 µM; in data set [3], < 20 µM; in data set [4] (whole cell lysate, subgenomic replicon 2a) it was < 120 µM and 115 µM. The inhibition at 100 µM at Trypsin (100 µM compound, read-out: Trypsin % Inh at 100 µM) came to 28%; at Chymotrypsin (100 µM compound, read-out: Chymotrypsin % Inh at 100 µM) it was 19%. Moreover, in data set [2] (Balb/c, pH 7.4, mouse liver microsomes 0.5 mg/mL, 1 µM compound, NADPH-generating system, read-out: Microsomal stability t1/2), the half-life at 1 µM turned out to be 21.7 min. In data set [2] (mouse liver microsomes, rounded values), this compound came in with a microsomal stability of 22 min. Further, the “fold increase of IC50, whole cell lysate 2a vs biochemical assay” value in data set [4] (sg2a lysate compared to purified enzyme) was 10–20 fold.
